# Test results taken from patent US8309734B2 (Hoffmann-La Roche Inc., priority 2008, dated 2012).
# Target: T1, human GPBAR1 receptor (Homo sapiens, UniProt Q8TDU6)
# T1 construct: expressed in transfected cells
# T1 sequence (Q8TDU6 1-330): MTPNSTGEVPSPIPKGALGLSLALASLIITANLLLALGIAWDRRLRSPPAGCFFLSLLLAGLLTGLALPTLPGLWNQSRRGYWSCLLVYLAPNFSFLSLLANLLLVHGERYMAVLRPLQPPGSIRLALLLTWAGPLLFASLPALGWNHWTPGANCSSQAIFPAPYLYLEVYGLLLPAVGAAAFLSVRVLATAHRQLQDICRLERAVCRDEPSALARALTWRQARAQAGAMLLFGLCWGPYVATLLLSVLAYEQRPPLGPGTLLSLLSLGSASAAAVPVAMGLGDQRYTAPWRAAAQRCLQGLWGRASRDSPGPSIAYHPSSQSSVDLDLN
# Test: functional cAMP assay in CHO-dhfr(minus) cells expressing human GPBAR1 receptors
# Type: cell-based
# Conditions: cAMP increase (TR-FRET) in CHO-dhfr(minus) cells expressing human GPBAR1; compounds incubated 30 min at 30° C.
# Procedure: The final clone was verified by DNA sequence analysis. The plasmid was transfected into CHO cells deficient in dihydrofolate reductase activity (CHO-dhfr-) using Lipofectamine plus (Invitrogen). Clones were isolated in limited dilution conditions and identified by activities in the cAMP assay using lithocholic acid as agonist.
# The growth medium was exchanged with Krebs Ringer Bicarbonate buffer with 1 mM IBMX and incubated at 30° C. for 30 mM. Compounds were added to a final assay volume of 100 μl and incubated for 30 min at 30° C. […] The time-resolved energy transfer is measured by a TRF reader (Evotec Technologies GmbH, Hamburg Germany), equipped with a ND:YAG laser as excitation source. The plate is measured twice with the excitation at 355 nm and at the emission with a delay of 100 ns and a gate of 100 ns, total exposure time 10s at 730 (bandwith 30 nm) or 645 nm (bandwith 75 nm), respectively.
# EC50 values were determined using Activity Base analysis (ID Business Solution, Limited). […] Specificity for GPBAR1 was tested in non-transfected CHO cells in the same assay as above.
row,SMILES,EC50 [nM]
1,"Cc1ccccc1N(C)C(=O)c1cccnc1Oc1cc(Cl)ccc1Cl [Example 41, 2-(2,5-Dichloro-phenoxy)-N-methyl-N-o-tolyl-nicotinamide]",33
2,"COc1ccccc1N(C)C(=O)c1ccncc1Oc1cc(Cl)ccc1Cl [Example 95, 3-(2,5-Dichloro-phenoxy)-N-(2-methoxy-phenyl)-N-methyl-isonicotinamide]",28
3,"COc1ncccc1N(C)C(=O)c1ccncc1Oc1ccc(F)c(Cl)c1 [Example 109, 3-(3-Chloro-4-fluoro-phenoxy)-N-(2-methoxy-pyridin-3-yl)-N-methyl-isonicotinamide]",562
4,"Cc1ccccc1N(C)C(=O)c1ccncc1Oc1ccc(F)c(Cl)c1 [Example 106, 3-(3-Chloro-4-fluoro-phenoxy)-N-methyl-N-o-tolyl-isonicotinamide]",425
5,"O=C(c1cccnc1Oc1cc(Cl)cc(Cl)c1)N1CCCc2ccccc21 [Example 17, [2-(3,5-Dichloro-phenoxy)-pyridin-3-yl]-(3,4-dihydro-2H-quinolin-1-yl)-methanone]",176
6,"O=C(c1ccncc1Oc1ccc(Cl)cc1Cl)N1CCCc2cc(F)cc(F)c21 [Example 98, [3-(2,4-Dichloro-phenoxy)-pyridin-4-yl]-(6,8-difluoro-3,4-dihydro-2H-quinolin-1-yl)-methanone]",217
7,"CN(C(=O)c1cccnc1Oc1cc(Cl)ccc1Cl)c1ccccc1-c1ccnn1C [Example 133, 2-(2,5-Dichloro-phenoxy)-N-methyl-N-[2-(2-methyl-2H-pyrazol-3-yl)-phenyl]-nicotinamide]",1970
8,"COc1ccc(F)cc1N(C)C(=O)c1cccnc1Oc1cc(Cl)ccc1Cl [Example 54, 2-(2,5-Dichloro-phenoxy)-N-(5-fluoro-2-methoxy-phenyl)-N-methyl-nicotinamide]",35
9,"O=C(c1cccnc1Oc1cc(C(F)(F)F)cc(Cl)c1F)N1CCCc2ccccc21 [Example 22, [2-(3-Chloro-2-fluoro-5-trifluoromethyl-phenoxy)-pyridin-3-yl]-(3,4-dihydro-2H-quinolin-1-yl)-methanone]",651
10,"Cc1cc(Cl)ncc1N(C)C(=O)c1cccnc1Oc1cc(Cl)ccc1Cl [Example 61, N-(6-Chloro-4-methyl-pyridin-3-yl)-2-(2,5-dichloro-phenoxy)-N-methyl-nicotinamide]",1980
11,"O=C(c1ccccc1)c1cccc(Oc2ncccc2C(=O)N2CCCc3ccccc32)c1 [Example 15, [2-(3-Benzoyl-phenoxy)-pyridin-3-yl]-(3,4-dihydro-2H-quinolin-1-yl)-methanone]",1690
12,"CN(C(=O)c1cccnc1Oc1cc(Cl)ccc1Cl)c1ccccc1C#N [Example 62, N-(2-Cyano-phenyl)-2-(2,5-dichloro-phenoxy)-N-methyl-nicotinamide]",820
13,"CSc1ccccc1N(C)C(=O)c1cccnc1Oc1cc(Cl)ccc1Cl [Example 132, 2-(2,5-Dichloro-phenoxy)-N-methyl-N-(2-methylsulfanyl-phenyl)-nicotinamide]",66

# More lines, now with the values ahead:
row,EC50 [nM],SMILES
1,10,"O=C(c1cccnc1Oc1cc(Cl)ccc1Cl)N1CCN(C2CCC2)c2ccccc21 [Example 126, (4-Cyclobutyl-3,4-dihydro-2H-quinoxalin-1-yl)-[2-(2,5-dichloro-phenoxy)-pyridin-3-yl]-methanone]"
2,211,"COC(=O)c1ccc(C#Cc2cc(Cl)c(Oc3ncccc3C(=O)N3CCN(C4CC4)c4ccccc43)cc2Cl)cc1Cl [Example 167, 2-Chloro-4-{2,5-dichloro-4-[3-(4-cyclopropyl-3,4-dihydro-2H-quinoxaline-1-carbonyl)-pyridin-2-yloxy]-phenylethynyl}-benzoic acid methyl ester]"
3,7,"O=C(c1ccncc1Oc1cc(Cl)ccc1Cl)N1CCCc2cc(F)cc(F)c21 [Example 92, [3-(2,5-Dichloro-phenoxy)-pyridin-4-yl]-(6,8-difluoro-3,4-dihydro-2H-quinolin-1-yl)-methanone]"
4,128,"O=C(c1cc(F)cnc1Oc1cccc(Cl)c1)N1CCCc2ccccc21 [Example 25, [2-(3-Chloro-phenoxy)-5-fluoro-pyridin-3-yl]-(3,4-dihydro-2H-quinolin-1-yl)-methanone]"
5,1970,"COc1ccc(Cl)c(N(C)C(=O)c2cc(F)cnc2Oc2cc(Cl)ccc2Cl)c1Cl [Example 146, N-(2,6-Dichloro-3-methoxy-phenyl)-2-(2,5-dichloro-phenoxy)-5-fluoro-N-methyl-nicotinamide]"
6,788,"O=C(O)CN1CCN(C(=O)c2cc(F)cnc2Oc2cc(Cl)ccc2Cl)c2ccccc21 [Example 155, {4-[2-(2,5-Dichloro-phenoxy)-5-fluoro-pyridine-3-carbonyl]-3,4-dihydro-2H-quinoxalin-1-yl}-acetic acid]"
7,246,"O=C(c1cccnc1Oc1cc(Cl)ccc1Cl)N1CC2CCCN2c2ccccc21 (stereo not shown) [Example 136, [2-(2,5-Dichloro-phenoxy)-pyridin-3-yl]-(2,3,3a,4-tetrahydro-1H-pyrrolo[1,2-a]quinoxalin-5-yl)-methanone]"
8,341,"COC(=O)CNC(=O)c1cc(Cl)c(Oc2ncccc2C(=O)N2CCN(C3CC3)c3ccccc32)cc1Cl [Example 183, {2,5-Dichloro-4-[3-(4-cyclopropyl-3,4-dihydro-2H-quinoxaline-1-carbonyl)-pyridin-2-yloxy]-benzoylamino}-acetic acid methyl ester]"
9,15,"O=C(c1ccncc1Oc1cc(Cl)ccc1Cl)N1CCCc2cc(F)ccc21 [Example 91, [3-(2,5-Dichloro-phenoxy)-pyridin-4-yl]-(6-fluoro-3,4-dihydro-2H-quinolin-1-yl)-methanone]"
10,1270,"O=C1CCCN(C(=O)c2cc(F)cnc2Oc2cc(Cl)ccc2Cl)c2ccccc21 [Example 82, 1-[2-(2,5-Dichloro-phenoxy)-5-fluoro-pyridine-3-carbonyl]-1,2,3,4-tetrahydro-benzo[b]azepin-5-one]"
11,127,"O=C(O)c1ccc(CCc2cc(Cl)c(Oc3ncccc3C(=O)N3CCN(C4CC4)c4ccccc43)cc2Cl)cc1Cl [Example 169, 2-Chloro-4-(2-{2,5-dichloro-4-[3-(4-cyclopropyl-3,4-dihydro-2H-quinoxaline-1-carbonyl)-pyridin-2-yloxy]-phenyl}-ethyl)-benzoic acid]"
12,689,"O=C(c1cc(F)cnc1Oc1cc(Cl)ccc1Cl)N1CCN(CC2CCC2)c2ccccc21 [Example 152, (4-Cyclobutylmethyl-3,4-dihydro-2H-quinoxalin-1-yl)-[2-(2,5-dichloro-phenoxy)-5-fluoro-pyridin-3-yl]-methanone]"
13,926,"O=C(c1cccnc1Oc1cc(Cl)ccc1Cl)N1CCN(CC2CCC2)c2ccccc21 [Example 139, (4-Cyclobutylmethyl-3,4-dihydro-2H-quinoxalin-1-yl)-[2-(2,5-dichloro-phenoxy)-pyridin-3-yl]-methasone]"
14,41,"O=C(O)CCNC(=O)CCc1cc(Cl)c(Oc2ncccc2C(=O)N2CCN(C3CC3)c3ccccc32)cc1Cl [Example 179, 3-(3-{2,5-Dichloro-4-[3-(4-cyclopropyl-3,4-dihydro-2H-quinoxaline-1-carbonyl)-pyridin-2-yloxy]-phenyl}-propionylamino)-propionic acid]"
15,771,"CN(C(=O)c1cc(F)ccc1Oc1cc(Cl)ccc1Cl)c1ccccc1 [Example 118, 2-(2,5-Dichloro-phenoxy)-5-fluoro-N-methyl-N-phenyl-benzamide]"
